Data reported in ChEMBL document CHEMBL4190403, “Design, synthesis, and biological evaluation of pyrazole derivatives containing acetamide bond as potential BRAFV600E inhibitors” (Bioorg Med Chem Lett, 2018).
pIC50: −log10 of the molar value. The source made the active and inactive calls. The rule behind the calls is not given here.

Assays:
[1] = tested on: A-375; assay: Induction of apoptosis in human A375 cells assessed as late apoptotic cells at 3 uM after 12 hrs by Annexin V-FITC/propidium iodide staining based flow cytometry (reference value: 3.80 to 4.61%); type: functional
[2] = tested on: A-375; assay: Induction of apoptosis in human A375 cells assessed as necrotic cells at 3 uM after 24 hrs by Annexin V-FITC/propidium iodide staining based flow cytometry (reference value: 0.635 to 3.12%); type: functional
[3] = tested on: A-375; assay: Induction of apoptosis in human A375 cells assessed as early apoptotic cells at 3 uM after 24 hrs by Annexin V-FITC/propidium iodide staining based flow cytometry (reference value: 1.22 to 1.64%); type: functional
[4] = tested on: A-375; assay: Induction of apoptosis in human A375 cells after 24 hrs by Annexin V-FITC/propidium iodide staining based flow cytometry; type: functional, cell-based
[5] = tested on: A-375; assay: Induction of apoptosis in human A375 cells assessed as necrotic cells at 3 uM after 12 hrs by Annexin V-FITC/propidium iodide staining based flow cytometry (reference value: 0.635 to 3.12%); type: functional
[6] = tested on: A-375; assay: Induction of apoptosis in human A375 cells assessed as late apoptotic cells at 3 uM after 36 hrs by Annexin V-FITC/propidium iodide staining based flow cytometry (reference value: 3.80 to 4.61%); type: functional
[7] = tested on: A-375; assay: Induction of apoptosis in human A375 cells assessed as viable cells at 3 uM after 12 hrs by Annexin V-FITC/propidium iodide staining based flow cytometry (reference value: 90.6 to 94.3%); type: functional; conditions: A-375, 12 h, read-out: Activity
[8] = tested on: A-375; assay: Induction of apoptosis in human A375 cells assessed as late apoptotic cells at 1 uM after 24 hrs by Annexin V-FITC/propidium iodide staining based flow cytometry (reference value: 3.80 to 4.61%); type: functional
[9] = tested on: A-375; assay: Cell cycle arrest in human A375 cells assessed as accumulation at G2/M phase at 3 uM after 12 hrs by propidium iodide staining-based flow cytometry (reference value: 7.91 to 21.07%); type: functional
[10] = tested on: A-375; assay: Cell cycle arrest in human A375 cells assessed as accumulation at G1 phase after 24 hrs by propidium iodide staining-based flow cytometry; type: functional
[11] = Antiproliferative activity against human WM1361 cells harboring wild-type BRAF after 48 hrs by MTT assay; type: functional, cell-based; conditions: WM1361, 48 h
[12] = tested on: A-375; assay: Induction of apoptosis in human A375 cells assessed as reduction in mitochondrial membrane potential up to 8 uM after 12 hrs using JC-1 staining-based flow cytometry; type: functional, cell-based
[13] = tested on: A-375; assay: Induction of apoptosis in human A375 cells assessed as necrotic cells at 3 uM after 36 hrs by Annexin V-FITC/propidium iodide staining based flow cytometry (reference value: 0.635 to 3.12%); type: functional
[14] = tested on: A-375; assay: Induction of apoptosis in human A375 cells assessed as viable cells at 3 uM after 36 hrs by Annexin V-FITC/propidium iodide staining based flow cytometry (reference value: 90.6 to 94.3%); type: functional; conditions: A-375, 36 h, read-out: Activity
[15] = tested on: A-375; assay: Induction of apoptosis in human A375 cells assessed as necrotic cells at 10 uM after 24 hrs by Annexin V-FITC/propidium iodide staining based flow cytometry (reference value: 0.635 to 3.12%); type: functional
[16] = tested on: A-375; assay: Induction of apoptosis in human A375 cells assessed as early apoptotic cells at 1 uM after 24 hrs by Annexin V-FITC/propidium iodide staining based flow cytometry (reference value: 1.22 to 1.64%); type: functional
[17] = tested on: A-375; assay: Induction of apoptosis in human A375 cells assessed as viable cells at 10 uM after 24 hrs by Annexin V-FITC/propidium iodide staining based flow cytometry (reference value: 90.6 to 94.3%); type: functional; conditions: A-375, 24 h, read-out: Activity
[18] = tested on: A-375; assay: Cell cycle arrest in human A375 cells assessed as accumulation at G2/M phase at 1 uM after 24 hrs by propidium iodide staining-based flow cytometry (reference value: 7.91 to 21.07%); type: functional
[19] = tested on: A-375; assay: Cell cycle arrest in human A375 cells assessed as accumulation at S phase at 3 uM after 12 hrs by propidium iodide staining-based flow cytometry (reference value: 20.08 to 31.09%); type: functional
[20] = tested on: A-375; assay: Induction of apoptosis in human A375 cells assessed as early apoptotic cells at 3 uM after 36 hrs by Annexin V-FITC/propidium iodide staining based flow cytometry (reference value: 1.22 to 1.64%); type: functional
[21] = tested on: A-375; assay: Cell cycle arrest in human A375 cells assessed as accumulation at S phase at 1 uM after 24 hrs by propidium iodide staining-based flow cytometry (reference value: 20.08 to 31.09%); type: functional
[22] = tested on: A-375; assay: Induction of apoptosis in human A375 cells assessed as early apoptotic cells at 3 uM after 12 hrs by Annexin V-FITC/propidium iodide staining based flow cytometry (reference value: 1.22 to 1.64%); type: functional
[23] = tested on: A-375; assay: Cell cycle arrest in human A375 cells assessed as accumulation at G2/M phase at 3 uM after 24 hrs by propidium iodide staining-based flow cytometry (reference value: 7.91 to 21.07%); type: functional
[24] = tested on: A-375; assay: Induction of apoptosis in human A375 cells assessed as late apoptotic cells at 10 uM after 24 hrs by Annexin V-FITC/propidium iodide staining based flow cytometry (reference value: 3.80 to 4.61%); type: functional
[25] = tested on: A-375; assay: Cell cycle arrest in human A375 cells assessed as accumulation at G1 phase at 3 uM after 36 hrs by propidium iodide staining-based flow cytometry (reference value: 59.02 to 60.22%); type: functional
[26] = tested on: A-375; assay: Cell cycle arrest in human A375 cells assessed as accumulation at G1 phase at 3 uM after 12 hrs by propidium iodide staining-based flow cytometry (reference value: 59.02 to 60.22%); type: functional
[27] = tested on: A-375; assay: Induction of apoptosis in human A375 cells assessed as viable cells at 3 uM after 24 hrs by Annexin V-FITC/propidium iodide staining based flow cytometry (reference value: 90.6 to 94.3%); type: functional; conditions: A-375, 24 h, read-out: Activity
[28] = tested on: A-375; assay: Cell cycle arrest in human A375 cells assessed as accumulation at G2/M phase at 10 uM after 24 hrs by propidium iodide staining-based flow cytometry (reference value: 7.91 to 21.07%); type: functional
[29] = tested on: A-375; assay: Cell cycle arrest in human A375 cells assessed as accumulation at G1 phase at 1 uM after 24 hrs by propidium iodide staining-based flow cytometry (reference value: 59.02 to 60.22%); type: functional
[30] = tested on: A-375; assay: Cell cycle arrest in human A375 cells assessed as accumulation at G2/M phase at 3 uM after 36 hrs by propidium iodide staining-based flow cytometry (reference value: 7.91 to 21.07%); type: functional
[31] = tested on: A-375; assay: Cell cycle arrest in human A375 cells assessed as accumulation at G1 phase at 10 uM after 24 hrs by propidium iodide staining-based flow cytometry (reference value: 59.02 to 60.22%); type: functional
[32] = tested on: A-375; assay: Induction of apoptosis in human A375 cells assessed as viable cells at 1 uM after 24 hrs by Annexin V-FITC/propidium iodide staining based flow cytometry (reference value: 90.6 to 94.3%); type: functional; conditions: A-375, 24 h, read-out: Activity
[33] = tested on: HT-29; assay: Antiproliferative activity against human HT-29 cells harboring BRAF V600E mutant after 24 hrs by MTT assay; type: functional, cell-based; conditions: HT-29, 24 h

What does the source list for COc1ccc(-n2cc(NC(=O)Cn3ccc(-c4cccc(Cl)c4)n3)cn2)cc1?
Activity [1]: 19.7%; Activity [2]: 2.89 - 4.99%; Activity [3]: 3.01 - 3.25%; Activity [4]: Dose-dependent effect; Activity [5]: 9.77%; Activity [6]: 59.7%; viability at 3 µM [7]: 65.3%; Activity [8]: 14.1%; Activity [9]: 11.44%; Activity [10]: Dose-dependent effect; pIC50 [11]: 4.99; Activity [12]: Active; Activity [13]: 5.58%; viability at 3 µM [14]: 32.8%; Activity [15]: 7.54%; Activity [16]: 1.92%; viability at 10 µM [17]: 53.2%; Activity [18]: 15.89%; Activity [19]: 35.98%; Activity [20]: 1.95%; Activity [21]: 29.07%; Activity [22]: 5.22%; Activity [23]: 9.69 - 9.82%; Activity [24]: 37.5%; Activity [25]: 35.56%; Activity [26]: 51.08%; viability at 3 µM [27]: 64.7 to 72.9%; Activity [28]: 10.95%; Activity [29]: 50.93%; Activity [30]: 10.06%; Activity [31]: 39.32%; viability at 1 µM [32]: 79.5%; pIC50 [33]: 5.66
